Here are results for one compound from US20080262080A1, “Allergy Suppressive Agent” (KYUSHU UNIVERSITY, NATIONAL UNIVERSITY CORPORATION, priority 2004, published 2008).

The assay has as its system FcεRI α- and γ-chains mRNA. The assay can be described thus: mRNA transcription level of FcεRI α- and γ-chains in KU812 cells (RT-PCR, Southern hybridization). Type of assay: cell-based, human. The following applies: serum-free, G3PDH control. The method, then:
The mRNA expression of each of the FcεRI α- and γ-chains was detected by RT-PCR and southern hybridization using specific probes. G3PDH (glyceraldehyde-3-phosphate dehydrogenase) was employed as a control.
KU812 cells (1×10^6 cells/mL) were incubated under serum-free conditions in RPMI 1640 medium to which chrysin had been added. After incubating, the cells were washed with PBS once and then completely lysed by adding 1 mL of Trizol (Invitrogen) per 1×10^7 cells and quickly suspending. After allowing to stand at room temperature for 5 min, 0.2 mL of chloroform was added and the mixture was vigorously stirred and overturned. […] The concentration of the total RNA diluted 50-fold with water was measured using a wavelength of 260 nm. […]
The PCR mixture was prepared by mixing 1 μL of the cDNA, 0.8 μL of 2 mM dNTP, 0.6 μL of MgCl2, 0.5 μL of […] sense primer, 0.5 μL of 20 μM antisense primer, 0.1 μL of Taq DNA polymerase (Fermentas) and 1 μL of 10× Taq buffer accompanying Taq DNA polymerase and adjusting the total volume to 10 μL with distilled water. […] Next, amplification was conducted in 13 to 15 cycles (each cycle consisting of 1 min at 95° C., 1 min at 60° C. and 1 min at 72° C. The PCR product was electrophoresed on a 1% agarose gel and the amplified DNA was detected by Southern blotting. […]

`O=c1cc(-c2ccccc2)oc2cc(O)cc(O)c12` [Chrysin, 5,7-dihydroxyflavone]: the “expression of FcεRI at the mRNA level” value is given as “suppressed”.
